From patent publication US7342137B1, “Cyclohexenone compounds from Antrodia camphorata and application thereof” (Golden Biotechnology Corporation, priority 2007, dated 2008)

How the values were obtained:
Assay type in all cases: cell-based
[1] = system: human breast-cancer cells, MCF-7; test: In vitro survival assay (MTT), breast cancer cells MCF-7; details: MCF7, 48 hours incubation
Procedure: The NCI anti-cancer drug screen model was adopted to test the anti-cancer effect of the compound from example 1 in the invention. The isolated compound of 4-hydroxy-2,3-dimethoxy-6-methyl-5(3,7,11-trimethyl-dodeca-2,6,10-trienyl)-cyclohex-2-enone from example 1 was added into the culture media of human breast-cancer cells, MCF-7 or MDA-MB-231, for tumor cell survival assay. This assay can be tested with 3-[4,5-dimethylthiazol-2-yl]2,5-diphenyltetrazolium bromide (MTT) assay, which is commonly used to determine cell proliferation, percent of viable cells, and cytotoxicity. MTT is a yellow dye, which can be absorbed by the living cells and be reduced to purplish blue formazan crystals by succinate tetrazolium reductase in mitochondria. Formazan formation can therefore be used to assess and determine the survival rate of cells.
(§1) The human breast-cancer cells, MCF-7 and MDA-MB-231 were separately cultivated in media containing fetal calf serum for 24 hours. The proliferated cells were washed once with PBS, then treated with 1× trypsin-EDTA and centrifuged at 1200 rpm for 5 minutes. The supernatant was discarded and the cell pellet was resuspended in 10 ml of fresh culture medium by gently shaking. The cells were placed in a 96-well plate. […] The plates were read on an ELISA reader at wavelength of 570 nm to determine the survival rates.

[2] = system: human breast-cancer cells, MDA-MB-231; test: In vitro Taxol add-on study (MTT), MDA-MB-231; details: Homo sapiens, 0.0017 μg/ml Taxol + formula 2
Procedure: The experiment was also carried out according to NCI anti-cancer drug screen in vitro model. The human breast-cancer cells, MCF-7 and MDA-MB-231 were separately cultivated in media containing fetal calf serum for 24 hours. The proliferated cells were washed once with PBS, then treated with 1× trypsin-EDTA and centrifuged at 1200 rpm for 5 minutes. The supernatant was discarded and the cell pellet was resuspended in 10 ml of fresh culture medium by gently shaking. The cells were placed in a 96-well plate after 0.0017 μg/ml Taxol was added and treated for 72 hours. 4-hydroxy-2,3-dimethoxy-6-methyl-5(3,7,11-trimethyl-dodeca-2,6,10-trienyl)-cyclohex-2-enone obtained from example 1 were added respectively into each of the 96 wells at the following concentrations: 0 μg/ml (the control group); 30, 10, 3, 1, 0.3, 0.1 and 0.03 μg/ml (the experiment group). The cells were incubated at 37° C. in a 5% CO2 incubator for 48 hours. MTT was added in a concentration of 2.5 mg/ml into each well in dark and reacted for 4 hours, followed by the addition of 100 μl of lysis buffer to terminate the reaction. The plates were read on an ELISA reader at wavelength of 570 nm to determine the survival rates.

[3] = system: human hepatic cancer cells, Hep 3B; test: In vitro Lovastatin add-on study (MTT), Hep 3B; details: Homo sapiens, Hep3B, 0.0043 μg/ml Lovastatin + formula 2
Procedure: The experiment was also carried out according to NCI anti-cancer drug screen in vitro model. The human hepatic cancer cells, Hep 3B and Hep G2 […] were separately cultivated in media containing fetal calf serum for 24 hours. The proliferated cells were washed once with PBS, then treated with 1× trypsin-EDTA and centrifuged at 1200 rpm for 5 minutes. The supernatant was discarded and the cell pellet was resuspended in 10 ml of fresh culture medium by gently shaking. The Hep 3B cells were treated with 0.0043 μg/ml of Lovastatin for 72 hours and Hep G2 cells were treated with 0.0017 μg/ml of Taxol for 72 hours before placing in a 96-well plate. 4-hydroxy-2,3-dimethoxy-6-methyl-5(3,7,11-trimethyl-dodeca-2,6,10-trienyl)-cyclohex-2-enone obtained from example 1 were added respectively into each of the 96 wells at the following concentrations: 0 μg/ml (the control group); 30, 10, 3, 1, 0.3, 0.1 and 0.03 μg/ml (the experiment group). The cells were incubated at 37° C. in a 5% CO2 incubator for 48 hours. MTT was added in a concentration of 2.5 mg/ml into each well in dark and reacted for 4 hours, followed by the addition of 100 μl of lysis buffer to stop the reaction. The plates were read on an ELISA reader at wavelength of 570 nm to determine the survival rates.

[4] = system: human prostate cancer cells, DU-145; test: In vitro survival assay (MTT), prostate cancer cells DU-145; details: 48 hours incubation
Procedure: The NCI anti-cancer drug screen model was also adopted to test the anti-cancer effect of the compound isolated from example 1 in the present invention. The isolated compound of 4-hydroxy-2,3-dimethoxy-6-methyl-5(3,7,11-trimethyl-dodeca-2,6,10-trienyl)-cyclohex-2-enone from example 1 was added into the culture media of human prostate cancer cells, LNCaP or DU-145, for tumor cell survival assay.
as §1, with “[…]” for “breast-cancer”, “LNCaP” for “MCF-7”, “DU-145,” for “MDA-MB-231”, “plate. Ethanol extracts of Antrodia camphorata (the control group, total extracts of Antrodia camphorata without purification) or 4-hydroxy-2,3-dimethoxy-6-methyl-5(3,7,11-trimethyl-dodeca-2,6,10-trienyl)-cyclohex-2-enone (the experiment group) were added into each of the 96 wells at the following concentrations: 30, 10, 3, 1, 0.3, 0.1 and 0.03 μg/ml, respectively. The cells were incubated at 37° C. in a 5% CO2 incubator for 48 hours.” for “plate.”

IC50 [2]: 0.011 µg/mL
IC50 [3]: 0.002 µg/mL
SMILES: COC1=C(OC)C(O)C(C/C=C(\C)CC/C=C(\C)CCC=C(C)C)C(C)C1=O (stereo not shown) [formula 2, 4-hydroxy-2,3-dimethoxy-6-methyl-5(3,7,11-trimethyl-dodeca-2,6,10-trienyl)-cyclohex-2-enone]
IC50 [1]: 0.852 µg/mL
IC50 [4]: 1.81 µg/mL
